Laboratory results as given in BindingDB's records for doi:10.1021/jm300317k (University of Manchester, 2012).

Molecular target: Glucose-6-phosphate 1-dehydrogenase (Homo sapiens, UniProt P11413)
Assay: Inhibition of human recombinant N-terminal His tagged G6PD expressed in Escherichia coli JM109 (DE3) cells assessed as production of NADPH after 30 mins by Amplite fluorimetric assay

Chain of Glucose-6-phosphate 1-dehydrogenase (P11413 whole entry): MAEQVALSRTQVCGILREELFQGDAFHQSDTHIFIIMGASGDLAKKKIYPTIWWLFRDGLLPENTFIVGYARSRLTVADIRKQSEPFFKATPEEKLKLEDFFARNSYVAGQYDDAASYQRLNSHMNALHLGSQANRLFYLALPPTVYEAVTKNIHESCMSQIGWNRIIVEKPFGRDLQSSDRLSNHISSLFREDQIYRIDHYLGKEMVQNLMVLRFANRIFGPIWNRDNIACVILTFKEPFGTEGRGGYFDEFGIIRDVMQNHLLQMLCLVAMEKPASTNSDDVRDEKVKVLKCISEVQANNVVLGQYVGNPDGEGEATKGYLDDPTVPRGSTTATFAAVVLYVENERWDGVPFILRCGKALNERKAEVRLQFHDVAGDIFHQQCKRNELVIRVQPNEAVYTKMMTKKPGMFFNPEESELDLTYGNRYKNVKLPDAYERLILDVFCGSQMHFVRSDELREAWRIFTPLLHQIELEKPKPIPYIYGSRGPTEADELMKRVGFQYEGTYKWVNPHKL

IC50 | SMILES
> 200 µM | CC(N=O)[C@H]1CC[C@H]2[C@@H]3CC[C@H]4C[C@@H](O)CC[C@]4(C)[C@H]3CC[C@]12C (some centres not stated)
> 200 µM | C[C@]12CC[C@H](O)C[C@@H]1CC[C@@H]1[C@@H]2CC[C@]2(C)C(N=O)CC[C@@H]12 (some centres not stated)
